Measured values as given in PubChem BioAssay (NCI).
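Test compounds were applied to cells in 96-well plates for 48 hours at 5 doses. GI50: concentration for 50% inhibition of growth. TGI marks complete inhibition of growth.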 Starred links: 1 amine or outer side, 2 acyl side, 3 side chain; linkers in the order of their positions; H or OH if unused. Non-standard residues stand in square brackets, D forms with d. Residues, ends and D or L forms follow the SMILES beside them. *: point of attachment. X14 = C/C=C/CC(C)C(O)[C@H](N[*:1])C(=O)[*:2]; Decanoyl = CCCCCCCCCC(=O)*; Leu(ol) = CC(C)C[C@H](N)CO; Iva = CC[C@](C)(N)C(=O)O; Aib = CC(C)(N)C(=O)O

How the values were obtained:
Test in all cases: DTP human tumour cell line panel, 48 h
[1] = system: HCC-2998 colon
[2] = system: HS 578T breast
[3] = system: SF-539 CNS
[4] = system: BT-549 breast
[5] = system: NCI-H23 lung
[6] = system: 786-0 renal
[7] = system: SN12C renal
[8] = system: T-47D breast
[9] = system: SK-MEL-28 melanoma
[10] = system: M14 melanoma
[11] = system: UACC-257 melanoma
[12] = system: SW-620 colon
[13] = system: A549 NSCLC
[14] = system: U251 CNS
[15] = system: SNB-75 CNS
[16] = system: HCT-15 colon
[17] = system: NCI-H226 lung
[18] = system: OVCAR-5 ovarian
[19] = system: A498 renal
[20] = system: KM12 colon
[21] = system: ACHN renal
[22] = system: CAKI-1 renal
[23] = system: HOP-92 NSCLC
[24] = system: HL-60(TB) leukemia
[25] = system: NCI/ADR-RES ovarian
[26] = system: K-562 leukemia
[27] = system: SK-OV-3 ovarian
[28] = system: NCI-H522 lung
[29] = system: OVCAR-8 ovarian
[30] = system: HOP-62 NSCLC
[31] = system: EKVX NSCLC
[32] = system: OVCAR-4 ovarian
[33] = system: UACC-62 melanoma
[34] = system: SK-MEL-2 melanoma
[35] = system: MDA-MB-231 breast
[36] = system: SR leukemia
[37] = system: LOX IMVI melanoma
[38] = system: HCT-116 colon
[39] = system: IGROV1 ovarian
[40] = system: RPMI-8226 leukemia
[41] = system: HT29 colon
[42] = system: DU-145 prostate
[43] = system: MCF7 breast
[44] = system: TK-10 renal
[45] = system: OVCAR-3 ovarian
[46] = system: PC-3 prostate
[47] = system: MALME-3M melanoma
[48] = system: SF-268 CNS
[49] = system: SNB-19 CNS
[50] = system: SF-295 CNS
[51] = system: RXF 393 renal
[52] = system: CCRF-CEM leukemia
[53] = system: COLO 205 colon
[54] = system: UO-31 renal
[55] = system: MDA-MB-435
[56] = system: NCI-H460 lung
[57] = system: SK-MEL-5 melanoma
[58] = system: MOLT-4 leukemia

Cc1[nH]c(C(=O)Nc2ccc(S(=O)(=O)N3CCCCC3)cc2OCCOCCOCCOCCOCCOCCOCCOCCOCCOc2cc(S(=O)(=O)N3CCCCC3)ccc2NC(=O)c2[nH]c(C)c3c2CCCCC3=O)c2c1C(=O)CCCC2
GI50 [1]: 0.296 µM
TGI [1]: 1.12 µM
GI50 [2]: 0.375 µM
TGI [2]: > 21.9 µM
GI50 [3]: 0.599 µM
TGI [3]: > 100 µM
GI50 [4]: 0.911 µM
TGI [4]: > 100 µM
GI50 [5]: 2.38 µM
TGI [5]: > 100 µM
GI50 [6]: 1.69 µM
TGI [6]: > 100 µM
GI50 [7]: 1.48 µM
TGI [7]: > 100 µM
GI50 [8]: 0.489 µM
TGI [8]: > 100 µM
GI50 [9]: 1.59 µM
TGI [9]: > 100 µM
GI50 [10]: 1.01 µM
TGI [10]: > 100 µM
GI50 [11]: 0.944 µM
GI50 [12]: 2.05 µM
TGI [12]: > 100 µM
GI50 [13]: 2.39 µM
TGI [13]: > 100 µM
GI50 [14]: 1.4 µM
TGI [14]: > 100 µM
GI50 [15]: 0.0788 µM
TGI [15]: 1.18 µM
GI50 [16]: 12.9 µM
TGI [16]: > 100 µM
GI50 [17]: 0.542 µM
TGI [17]: 8.73 µM
GI50 [18]: 3.26 µM
TGI [18]: > 100 µM
GI50 [19]: 1.21 µM
GI50 [20]: 1.68 µM
TGI [20]: > 100 µM
GI50 [21]: 17.4 µM
TGI [21]: > 100 µM
GI50 [22]: 0.841 µM
TGI [22]: > 100 µM
GI50 [23]: 0.433 µM
TGI [23]: > 100 µM
GI50 [24]: 0.108 µM
GI50 [25]: > 100 µM
TGI [25]: > 100 µM
GI50 [26]: 0.435 µM
TGI [26]: > 100 µM
GI50 [27]: 0.286 µM
TGI [27]: 0.806 µM
GI50 [28]: 0.19 µM
TGI [28]: 1.21 µM
GI50 [29]: 1.67 µM
TGI [29]: > 100 µM
GI50 [30]: 1.11 µM
TGI [30]: > 100 µM
GI50 [31]: 2.97 µM
TGI [31]: > 100 µM
GI50 [32]: 0.909 µM
TGI [32]: > 29.7 µM
GI50 [33]: 0.461 µM
TGI [33]: 3.71 µM
GI50 [34]: 0.768 µM
GI50 [35]: 0.776 µM
TGI [35]: > 100 µM
GI50 [36]: 0.107 µM
TGI [36]: > 32.5 µM
GI50 [37]: 0.169 µM
TGI [37]: 0.639 µM
GI50 [38]: 0.538 µM
TGI [38]: 4.41 µM
GI50 [39]: 0.48 µM
GI50 [40]: 0.325 µM
GI50 [41]: 0.648 µM
TGI [41]: > 19.8 µM
GI50 [42]: 4.99 µM
TGI [42]: > 100 µM
GI50 [43]: 0.095 µM
TGI [43]: > 100 µM
GI50 [44]: 2.05 µM
TGI [44]: > 100 µM
GI50 [45]: 0.483 µM
GI50 [46]: 1.09 µM
TGI [46]: > 100 µM
GI50 [47]: 0.909 µM
TGI [47]: > 23.5 µM
GI50 [48]: 2.29 µM
TGI [48]: > 100 µM
GI50 [49]: 1.02 µM
TGI [49]: > 100 µM
GI50 [50]: 2.83 µM
TGI [50]: > 100 µM
GI50 [51]: 1.26 µM
TGI [51]: > 100 µM
GI50 [52]: 1.29 µM
TGI [52]: > 100 µM
GI50 [53]: 1.17 µM
TGI [53]: > 100 µM
GI50 [54]: 4.83 µM
TGI [54]: > 100 µM
GI50 [55]: 0.766 µM
TGI [55]: > 100 µM
GI50 [56]: 1.77 µM
TGI [56]: > 100 µM
GI50 [57]: 3.92 µM
TGI [57]: > 89.8 µM
GI50 [58]: 0.861 µM
TGI [58]: > 32.8 µM

C/C=C/CC(C)C(O)[C@H](NC(=O)[C@@H]1CCCN1C(=O)C(C)(C)NC(=O)CCCCCCCCC)C(=O)N[C@@](C)(CC)C(=O)N[C@@H](CCC(N)=O)C(=O)N[C@H](CCC(N)=O)C(=O)NC(C)(C)C(=O)N[C@@](C)(CC)C(=O)N[C@@H](CCC(N)=O)C(=O)N[C@H](CC(C)C)C(=O)N[C@H](CO)CC(C)C (stereo partly drawn) (Decanoyl-[Aib]P[X14][Iva]Q[dQ][Aib][Iva]Q[dL][Leu(ol)])
GI50 [1]: 0.107 µM
TGI [1]: 1.6 µM
GI50 [2]: 0.297 µM
TGI [2]: 1.72 µM
GI50 [3]: 0.338 µM
TGI [3]: 1.31 µM
GI50 [4]: 0.304 µM
TGI [4]: 0.829 µM
GI50 [6]: 0.284 µM
TGI [6]: 1.44 µM
GI50 [7]: 0.211 µM
TGI [7]: 1.11 µM
GI50 [9]: 0.0627 µM
TGI [9]: 2 µM
GI50 [10]: 0.0615 µM
TGI [10]: 1.32 µM
GI50 [11]: 0.0621 µM
TGI [11]: 0.758 µM
GI50 [12]: 0.0892 µM
TGI [12]: 1.33 µM
GI50 [13]: 0.0956 µM
TGI [13]: 1.16 µM
GI50 [14]: 0.0548 µM
TGI [14]: 1.2 µM
GI50 [15]: 0.174 µM
TGI [15]: 0.803 µM
GI50 [16]: 0.297 µM
TGI [16]: 1.27 µM
GI50 [17]: 0.182 µM
TGI [17]: 1.48 µM
GI50 [18]: 0.208 µM
TGI [18]: 1.29 µM
GI50 [19]: 0.242 µM
TGI [19]: 0.721 µM
GI50 [20]: 0.0752 µM
TGI [20]: 1.17 µM
GI50 [21]: 0.0877 µM
TGI [21]: 1.13 µM
GI50 [22]: 0.206 µM
TGI [22]: 0.659 µM
TGI [23]: 0.0836 µM
GI50 [24]: 0.0291 µM
TGI [24]: 0.114 µM
GI50 [25]: 0.985 µM
TGI [25]: 2.33 µM
GI50 [26]: 0.0418 µM
TGI [26]: 1.09 µM
GI50 [27]: 0.233 µM
TGI [27]: 0.873 µM
GI50 [28]: 0.055 µM
TGI [28]: 0.72 µM
GI50 [29]: 0.199 µM
TGI [29]: 1.33 µM
GI50 [31]: 0.173 µM
TGI [31]: 1.43 µM
GI50 [32]: 0.0825 µM
TGI [32]: 1.87 µM
GI50 [33]: 0.103 µM
TGI [33]: 1.47 µM
GI50 [34]: 0.0604 µM
TGI [34]: 0.688 µM
GI50 [35]: 0.274 µM
TGI [35]: 0.99 µM
GI50 [36]: 0.253 µM
TGI [36]: 0.943 µM
GI50 [37]: 0.164 µM
TGI [37]: 0.697 µM
GI50 [38]: 0.087 µM
TGI [38]: 1.2 µM
GI50 [39]: 0.406 µM
TGI [39]: 1.75 µM
GI50 [40]: 0.0295 µM
TGI [40]: 0.14 µM
GI50 [41]: 0.0974 µM
TGI [41]: 1.35 µM
GI50 [42]: 0.318 µM
TGI [42]: 1.53 µM
GI50 [43]: 0.0594 µM
TGI [43]: 1.16 µM
GI50 [44]: 0.0675 µM
TGI [44]: 1.53 µM
GI50 [45]: 0.0417 µM
TGI [45]: 1.31 µM
GI50 [46]: 0.0527 µM
TGI [46]: 1.05 µM
GI50 [47]: 0.0309 µM
TGI [47]: 0.643 µM
GI50 [48]: 0.281 µM
TGI [48]: 1.36 µM
GI50 [49]: 0.134 µM
TGI [49]: 1.35 µM
GI50 [50]: 0.0488 µM
TGI [50]: 0.754 µM
GI50 [51]: 0.259 µM
TGI [51]: 1.26 µM
GI50 [52]: 0.152 µM
TGI [52]: 1.18 µM
GI50 [53]: 0.049 µM
TGI [53]: 0.187 µM
GI50 [54]: 0.212 µM
TGI [54]: 1.11 µM
GI50 [55]: 0.111 µM
TGI [55]: 1.2 µM
GI50 [56]: 0.094 µM
TGI [56]: 1.15 µM
GI50 [57]: 0.0407 µM
TGI [57]: 0.2 µM
GI50 [58]: 0.259 µM
TGI [58]: 1.14 µM
